Measurements taken from patent publication US11345713B2, “Compounds as modulators of TLR2 signaling” (Neuropore Therapies, inc., priority 2018, dated 2022).

Experiments:
[1] = target: T1, human TLR2 (Pam3CSK4, TLR1/2 agonist) in HEK-Blue hTLR2 cells (Homo sapiens, UniProt O60603); assay: HEK-Blue hTLR2 antagonism assay (SEAP reporter) with Pam3CSK4 as agonist; type: cell-based; conditions: 2 h compound pre-incubation, approx. 3×EC50 Pam3CSK4, 18 h, SEAP OD 655 nm, background subtracted
T1 construct: host or cells: HEK-Blue hTLR2 (HEK-293)
T1 sequence (O60603 19-784 limits assumed): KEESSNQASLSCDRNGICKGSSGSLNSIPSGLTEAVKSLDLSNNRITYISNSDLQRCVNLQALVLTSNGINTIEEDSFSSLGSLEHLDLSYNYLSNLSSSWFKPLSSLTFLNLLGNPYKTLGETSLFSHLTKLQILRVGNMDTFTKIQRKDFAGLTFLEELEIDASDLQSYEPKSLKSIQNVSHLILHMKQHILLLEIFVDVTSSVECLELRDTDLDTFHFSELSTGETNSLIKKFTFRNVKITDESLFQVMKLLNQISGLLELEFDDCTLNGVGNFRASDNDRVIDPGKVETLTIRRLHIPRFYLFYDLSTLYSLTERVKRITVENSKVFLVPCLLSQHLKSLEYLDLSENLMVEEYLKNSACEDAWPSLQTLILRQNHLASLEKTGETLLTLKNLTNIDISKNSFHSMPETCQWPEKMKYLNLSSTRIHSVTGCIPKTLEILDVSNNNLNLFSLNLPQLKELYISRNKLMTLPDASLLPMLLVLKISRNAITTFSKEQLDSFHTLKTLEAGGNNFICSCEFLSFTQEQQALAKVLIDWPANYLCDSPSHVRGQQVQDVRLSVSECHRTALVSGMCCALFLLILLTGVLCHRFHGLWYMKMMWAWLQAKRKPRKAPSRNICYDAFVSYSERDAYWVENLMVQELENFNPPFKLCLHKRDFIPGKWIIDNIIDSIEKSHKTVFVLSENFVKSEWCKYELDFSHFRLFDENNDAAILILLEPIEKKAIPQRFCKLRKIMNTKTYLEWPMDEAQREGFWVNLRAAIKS
Protocol: (§1) Synthetic diacylated lipoprotein (Pam2CSK4, TLR2/6 agonist) and synthetic triacylated lipoprotein (Pam3CSK4, TLR1/2 agonist) were obtained from InvivoGen and were dissolved in endotoxin-free water to a concentration 1 mg/mL, vortexed until complete solubilization, and stored in aliquots at −20° C. Prior to addition to cells, an aliquot of the dissolved ligand was vortexed shortly and then was diluted in medium to 25 ng/mL Pam2CSK4 or 1000 ng/mL Pam3CSK4. The EC50 of the agonists for each assay run was determined by using 3-fold dilutions of each agonist from the following starting concentrations: 5 ng/mL for Pam2CSK4, and 200 ng/mL for Pam3CSK4.
(§2) Test compounds were solubilized fresh to 10-20 mM stocks in DMSO and sonicated for 5-10 minutes in a water bath sonicator. Serial dilutions were prepared in DMSO, and then diluted in medium. The final concentration of DMSO used in the assay was 1%.
(§3) HEK-Blue hTLR2 reporter cells (InvivoGen) are HEK-293 cells stably expressing both the human TLR2 gene and a secreted embryonic alkaline phosphatase (SEAP) reporter construct downstream of NFκB promotor sites. HEK-Blue hTLR2 reporters were cultured according to manufacturer's protocol using Dulbecco's Modified Eagle Medium (DMEM; Gibco) containing 1× GlutaMax (Gibco), 10% heat-inactivated Fetal Bovine Serum (Gibco), Pen-Strep (50 U/mL penicillin, 50 μg/mL streptomycin, Gibco), 100 μg/mL Normocin (InvivoGen), and the selective antibiotic, 1× HEK-Blue Selection (InvivoGen). Quanti-Blue reagent (InvivoGen) for detection and quantification of secreted alkaline phosphatase was dissolved in 100 mL of endotoxin-free water, warmed to 37° C. for 30 minutes and then filtered using a 0.2 μm membrane.
(§4) On day 1, 50 μL of each test compound dilution in duplicates or a vehicle control was added to each well of a 96-well plate followed by addition of 150 μL of HEK-Blue hTLR2 cell suspension (1×10^5 cells/well) and incubated at 37° C./5% CO2 for 2 h. Next, 50 μL of an approximate 3×EC50 concentration of each agonist (Pam2CSK4 or Pam3CSK4) was added to the wells containing test compounds or the vehicle control. The plates were then incubated at 37° C./5% CO2 for 18 h. For each assay run, non-treated HEK-Blue hTLR2 cells were treated with serial dilutions of agonists to determine EC50 values for the respective run.
(§5) On day 2, secreted alkaline phosphatase (SEAP) activity was detected in cell culture supernatants. In brief, 20 μL was collected from each well and transferred to a 96-well plate. Next, 200 μL of Quanti-Blue detection reagent was added to each well. Plates were incubated at room temperature for 15 min and SEAP activity was assessed by spectrophotometer OD reading at 655 nm. […] The activities of the compounds against Pam2CSK4 and Pam3CSK4 are presented as IC50 values for the response from cells treated with agonists with the background signal subtracted.

[2] = target: T2, human TLR2 (Pam2CSK4, TLR2/6 agonist) in HEK-Blue hTLR2 cells (Homo sapiens, UniProt O60603); assay: HEK-Blue hTLR2 antagonism assay (SEAP reporter) with Pam2CSK4 as agonist; type: cell-based; conditions: 2 h compound pre-incubation, approx. 3×EC50 Pam2CSK4, 18 h, SEAP OD 655 nm, background subtracted
T2 construct: host or cells: HEK-Blue hTLR2 (HEK-293)
T2 sequence (O60603 19-784 limits assumed): as above
Protocol: as §1, §2, §3, §4, §5

Row | IC50 [1] [µM] | IC50 [2] [µM] | SMILES
1 | 6.4 | 6.2 | COc1cc(/C=C/C(=O)c2ccccc2)cc(C=O)c1O [compound 33, (E)-2-hydroxy-3-methoxy-5-(3-oxo-3-phenylprop-1-en-1-yl)benzaldehyde]
2 | 7.5 | 9.7 | COc1cc(/C=C/c2cc(C=O)c(O)c(OC)c2)ccc1O [compound 34, (E)-2-hydroxy-5-(4-hydroxy-3-methoxystyryl)-3-methoxybenzaldehyde]
3 | 0.3 | 1 | O=Cc1cc(/C=C/c2ccc(-c3ccccc3)cc2)cc(F)c1O [compound 37, (E)-5-(2-([1,1′-biphenyl]-4-yl)vinyl)-3-fluoro-2-hydroxybenzaldehyde]
4 | 15.4 | 12.8 | O=Cc1cc(/C=C/c2ccc3c(c2)OCCO3)cc(F)c1O [compound 39, (E)-5-(2-(2,3-dihydrobenzo[b][1,4]dioxin-6-yl)vinyl)-3-fluoro-2-hydroxybenzaldehyde]
5 | 4.5 | 3.4 | O=Cc1cc(/C=C/c2ccc(N3CCOCC3)cc2)cc(F)c1O [compound 42, (E)-3-fluoro-2-hydroxy-5-(4-morpholinostyryl)benzaldehyde]
6 | 3.2 | 3 | COc1cc(/C=C/c2cccc(N3CCOCC3)c2)cc(C=O)c1O [compound 44, (E)-2-hydroxy-3-methoxy-5-(3-morpholinostyryl)benzaldehyde]
7 | 0.9 | 1.3 | O=Cc1cc(/C=C/c2cccc(N3CCCC3)c2)cc(F)c1O [compound 47, (E)-3-fluoro-2-hydroxy-5-(3-(pyrrolidin-1-yl)styryl)benzaldehyde]
8 | > 100 | > 100 | COc1cc(/C=C/c2ccc(N3CCCC3)cc2)cc(O)c1C=O [compound 52, (E)-2-hydroxy-6-methoxy-4-(4-(pyrrolidin-1-yl)styryl)benzaldehyde]
9 | 4.6 | 4 | COCCOc1ccc(/C=C/c2cc(C=O)c(O)c(OC)c2)cc1 [compound 54, (E)-2-hydroxy-3-methoxy-5-(4-(2-methoxyethoxy)styryl)benzaldehyde]
10 | 1.9 | 1.7 | O=Cc1cc(/C=C/c2ccc(-n3cccn3)cc2)cc(F)c1O [compound 57, (E)-5-(4-(1H-pyrazol-1-yl)styryl)-3-fluoro-2-hydroxybenzaldehyde]
11 | 5 | 4.9 | COc1cc(/C=C/c2ccc3ncccc3c2)cc(C=O)c1O [compound 58, (E)-2-hydroxy-3-methoxy-5-(2-(quinolin-6-yl)vinyl)benzaldehyde]
12 | 0.4 | 1 | CC(C)(C)OC(=O)N1CCCc2cc(/C=C/c3cc(F)c(O)c(C=O)c3)ccc21 [compound 61, tert-butyl (E)-6-(3-fluoro-5-formyl-4-hydroxystyryl)-3,4-dihydroquinoline-1(2H)-carboxylate]
13 | 0.5 | 1.1 | CCN(CC)c1ccc(/C=C/c2cc(F)c(O)c(C=O)c2)cc1 [compound 64, (E)-5-(4-(diethylamino)styryl)-3-fluoro-2-hydroxybenzaldehyde]

The remaining lines, values behind:

Row | SMILES | IC50 [1] [µM] | IC50 [2] [µM]
14 | COc1cc(/C=C/c2ccc3ccccc3c2)cc(C=O)c1O [compound 32, (E)-2-hydroxy-3-methoxy-5-(2-(naphthalen-2-yl)vinyl)benzaldehyde] | 1 | 1.1
15 | COc1cc(/C=C/C(=O)N2CCOCC2)cc(C=O)c1O [compound 35, (E)-2-hydroxy-3-methoxy-5-(3-morpholino-3-oxoprop-1-en-1-yl)benzaldehyde] | 62.6 | 68.5
16 | COc1cc(/C=C/c2ccc(-c3ccccc3)cc2)cc(C=O)c1O [compound 36, (E)-5-(2-([1,1′-biphenyl]-4-yl)vinyl)-2-hydroxy-3-methoxybenzaldehyde] | 0.4 | 0.6
17 | COc1cc(C=Cc2ccc3c(c2)OCCO3)cc(C=O)c1O [compound 38, 5-(2-(2,3-dihydrobenzo[b][1,4]dioxin-6-yl)vinyl)-2-hydroxy-3-methoxybenzaldehyde] | 5 | 4.4
18 | COc1cc(/C=C/c2ccc(N3CCOCC3)cc2)cc(C=O)c1O [compound 40, (E)-2-hydroxy-3-methoxy-5-(4-morpholinostyryl)benzaldehyde] | 2.5 | 2.3
19 | COc1cc(/C=C\c2ccc(N3CCOCC3)cc2)cc(C=O)c1O [compound 41, (Z)-2-hydroxy-3-methoxy-5-(4-morpholinostyryl)benzaldehyde] | 29.8 | 35.1
20 | O=Cc1cc(/C=C\c2ccc(N3CCOCC3)cc2)cc(F)c1O [compound 43, (Z)-3-fluoro-2-hydroxy-5-(4-morpholinostyryl)benzaldehyde] | 40.7 | 32.8
21 | O=Cc1cc(/C=C/c2cccc(N3CCOCC3)c2)cc(F)c1O [compound 45, (E)-3-fluoro-2-hydroxy-5-(3-morpholinostyryl)benzaldehyde] | 6.7 | 5
22 | COc1cc(/C=C/c2cccc(N3CCCC3)c2)cc(C=O)c1O [compound 46, (E)-2-hydroxy-3-methoxy-5-(3-(pyrrolidin-1-yl)styryl)benzaldehyde] | 1 | 1.4
23 | COc1cc(/C=C/c2ccc(N3CCCC3)cc2)cc(C=O)c1O [compound 48, (E)-2-hydroxy-3-methoxy-5-(4-(pyrrolidin-1-yl)styryl)benzaldehyde] | 0.6 | 1
24 | O=Cc1cc(/C=C\c2ccc(N3CCCC3)cc2)cc(F)c1O [compound 50, (Z)-3-fluoro-2-hydroxy-5-(4-(pyrrolidin-1-yl)styryl)benzaldehyde] | 6.7 | 10
25 | COc1cc(/C=C\c2ccc(N3CCCC3)cc2)cc(C=O)c1O [compound 51, (Z)-2-hydroxy-3-methoxy-5-(4-(pyrrolidin-1-yl)styryl)benzaldehyde] | 70.1 | 71.3
26 | O=Cc1c(O)cc(/C=C/c2ccc(N3CCCC3)cc2)cc1F [compound 53, (E)-2-fluoro-6-hydroxy-4-(4-(pyrrolidin-1-yl)styryl)benzaldehyde] | 1.5 | 1.3
27 | COCCOc1ccc(/C=C/c2cc(F)c(O)c(C=O)c2)cc1 [compound 55, (E)-3-fluoro-2-hydroxy-5-(4-(2-methoxyethoxy)styryl)benzaldehyde] | 4.1 | 3.6
28 | COc1cc(/C=C/c2ccc(-n3cccn3)cc2)cc(C=O)c1O [compound 56, (E)-5-(4-(1H-pyrazol-1-yl)styryl)-2-hydroxy-3-methoxybenzaldehyde] | 1.7 | 1.8
29 | O=Cc1cc(/C=C/c2ccc3ncccc3c2)cc(F)c1O [compound 59, (E)-3-fluoro-2-hydroxy-5-(2-(quinolin-6-yl)vinyl)benzaldehyde] | 2.6 | 4.1
30 | COc1cc(/C=C/c2ccc3c(c2)CCCN3C(=O)OC(C)(C)C)cc(C=O)c1O [compound 60, tert-butyl (E)-6-(3-formyl-4-hydroxy-5-methoxystyryl)-3,4-dihydroquinoline-1(2H)-carboxylate] | 0.9 | 2.3
31 | CN1CCCc2cc(/C=C/c3cc(F)c(O)c(C=O)c3)ccc21 [compound 62, (E)-3-fluoro-2-hydroxy-5-(2-(1-methyl-1,2,3,4-tetrahydroquinolin-6-yl)vinyl)benzaldehyde] | 0.8 | 1.5
32 | CCN(CC)c1ccc(/C=C/c2cc(C=O)c(O)c(OC)c2)cc1 [compound 63, (E)-5-(4-(diethylamino)styryl)-2-hydroxy-3-methoxybenzaldehyde] | 0.6 | 1.5
33 | COc1cc(/C=C/c2ccc(OCC3CC3)cc2)cc(C=O)c1O [compound 65, (E)-5-(4-(cyclopropylmethoxy)styryl)-2-hydroxy-3-methoxybenzaldehyde] | 0.5 | 1.7
